According to the supplement of paper PMC10307832:

Experiments:
Experiment in all cases: relative viability (nuclei count vs DMSO), 5 days (fraction); higher = more cells survive
Mirin + Linsitinib = compound: N=C1NC(=O)/C(=C/c2ccc(O)cc2)S1 [Mirin] + C[C@]1(O)C[C@@H](c2nc(-c3ccc4ccc(-c5ccccc5)nc4c3)c3c(N)nccn32)C1 [Linsitinib] (partner 1 µM)
Outline: (§1)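 Relative viability equals treated-well nuclei counts divided by vehicle-well nuclei counts. Counts came from 4× images of lung cancer cell lines grown in 1536-well plates for 5 days after pin-tool dosing on the day after seeding. Dosing used one drug alone or a fixed anchor-drug dose plus five library-drug doses (not always all listed) in √10 steps, and values are medians of duplicate plates.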

[1] = compound: CCn1c(-c2nonc2N)nc2cnc(Oc3cccc(NC(=O)c4ccc(OCCN5CCOCC5)cc4)c3)cc21 + O=C(c1cc(Cc2n[nH]c(=O)c3ccccc23)ccc1F)N1CCN(C(=O)C2CC2)CC1 [Olaparib] (partner 8 µM)
Outline: as §1

[2] = compound: CCC1=CN=CN=C1N2CCN(CC2)CC3=NC4=C(N3)C=C(C=C4)C(F)(F)F + Nc1ncn([C@H]2C[C@H](O)[C@@H](CO)O2)c(=O)n1 [Decitabine] (partner 2 µM)
Outline: as §1

Mirin + Crizotinib = compound: N=C1NC(=O)/C(=C/c2ccc(O)cc2)S1 [Mirin] + C[C@@H](Oc1cc(-c2cnn(C3CCNCC3)c2)cnc1N)c1c(Cl)ccc(F)c1Cl [Crizotinib] (partner 1 µM)
Outline: as §1

| Cell Line | relative viability (Mirin + Linsitinib; first compound 0.25 µM) | relative viability (Mirin + Linsitinib; first compound 0.7906 µM) | relative viability (Mirin + Linsitinib; first compound 2.5 µM) | relative viability (Mirin + Linsitinib; first compound 7.906 µM) | relative viability (Mirin + Linsitinib; first compound 25 µM) | relative viability ([1]; first compound 0.04 µM) | relative viability ([1]; first compound 0.1265 µM) | relative viability ([1]; first compound 0.4 µM) | relative viability ([1]; first compound 1.265 µM) | relative viability ([1]; first compound 4 µM) | relative viability ([2]; first compound 0.04 µM) | relative viability ([2]; first compound 0.1265 µM) | relative viability ([2]; first compound 0.4 µM) | relative viability ([2]; first compound 1.265 µM) | relative viability ([2]; first compound 4 µM) | relative viability (Mirin + Crizotinib; first compound 0.25 µM) | relative viability (Mirin + Crizotinib; first compound 0.7906 µM) | relative viability (Mirin + Crizotinib; first compound 2.5 µM) | relative viability (Mirin + Crizotinib; first compound 7.906 µM) | relative viability (Mirin + Crizotinib; first compound 25 µM) |
| --- | --- | --- | --- | --- | --- | --- | --- | --- | --- | --- | --- | --- | --- | --- | --- | --- | --- | --- | --- | --- |
| 201T | 1 | 1.04 | 1.01 | 1.02 | 1.09 | 0.859 | 0.933 | 0.817 | 0.812 | 0.769 | 0.823 | 0.813 | 0.879 | 0.869 | 0.819 | 0.936 | 1.09 | 0.995 | 1.16 | 1.22 |
| A549 | 0.508 | 0.58 | 0.544 | 0.503 | 0.511 | 0.499 | 0.343 | 0.122 | 0.0557 | 0.102 | 0.277 | 0.121 | 0.237 | 0.265 | 0.247 | 0.799 | 0.9 | 0.739 | 0.675 | 0.68 |
| A-427 | 1.11 |  | 1.19 | 1.19 | 1.2 | 0.704 | 0.685 | 0.601 | 0.198 | 0.264 | 0.55 | 0.548 | 0.556 | 0.535 | 0.599 | 0.87 |  | 0.809 | 0.881 | 0.958 |
| ABC-1 | 0.771 | 0.93 | 0.773 | 1.04 | 0.455 | 0.632 | 0.589 | 0.74 | 0.386 | 0.458 |  |  | 1.04 | 0.84 | 0.887 | 0.993 | 1.09 | 0.866 | 0.918 | 0.664 |
| BEN | 0.821 | 1.37 | 0.973 | 0.809 | 0.502 | 1.29 | 0.894 | 0.714 | 0.368 | 0.415 | 0.638 | 0.61 | 0.703 | 0.548 | 0.508 | 0.855 | 0.753 | 1.01 | 0.82 | 0.43 |
| CAL-12T | 0.856 | 0.726 | 0.825 | 0.856 | 0.838 | 0.825 | 0.795 | 0.73 | 0.635 | 0.539 |  |  |  |  |  | 0.667 | 0.509 | 0.619 | 0.573 | 0.639 |
| COR-L23 | 1.01 | 1.16 | 1.02 | 0.955 | 0.892 | 0.346 | 0.301 | 0.269 | 0.145 | 0.124 | 0.438 | 0.378 | 0.406 | 0.383 | 0.499 | 0.69 | 0.828 | 0.75 | 0.556 | 0.617 |
| COR-L 105 | 0.984 | 1.02 | 1.13 | 1.09 | 0.846 | 0.631 | 0.617 | 0.699 | 0.554 | 0.457 | 0.665 | 0.652 | 0.698 | 0.541 | 0.669 | 0.781 | 0.996 | 0.714 | 0.855 | 0.697 |
| Calu-6 | 0.914 | 0.908 | 0.903 | 0.856 | 0.88 | 0.569 | 0.528 | 0.541 | 0.381 | 0.328 |  |  |  |  |  | 0.745 | 0.833 | 0.767 | 0.781 | 0.781 |
| ChaGo-K-1 |  |  |  |  |  | 0.512 | 0.443 | 0.443 | 0.399 | 0.387 | 0.554 | 0.471 | 0.526 | 0.501 | 0.488 | 0.984 |  | 1.12 | 1.04 | 0.866 |
| EBC-1 | 1.06 | 1.07 | 0.872 | 0.875 | 0.974 | 0.777 | 0.716 | 0.637 | 0.492 | 0.535 |  |  |  |  |  | 0.21 | 0.221 | 0.166 | 0.194 | 0.21 |
| EKVX | 1.11 | 0.959 | 1.03 | 0.933 | 1 | 1.18 | 0.856 | 0.802 | 0.635 | 0.79 | 0.264 | 0.289 | 0.328 | 0.344 | 0.335 | 0.839 | 0.811 | 1.1 | 0.947 | 1.1 |
| EMC-BAC-2 | 0.793 | 0.825 | 0.883 | 0.853 | 0.815 | 0.474 | 0.42 | 0.38 | 0.27 | 0.292 |  | 0.945 | 0.998 | 0.924 | 1.05 | 0.727 | 0.818 | 0.774 | 0.697 | 0.616 |
| EPLC-272H | 1.1 |  | 1.16 | 0.978 | 0.831 | 1.09 | 0.928 | 0.827 | 0.449 | 0.365 | 0.347 | 0.319 | 0.388 | 0.288 | 0.406 | 0.83 |  | 0.853 | 0.671 | 0.779 |
| H3255 | 0.9 | 0.886 | 0.972 | 0.954 | 0.97 | 0.532 | 0.542 | 0.501 | 0.364 | 0.383 | 0.578 | 0.555 | 0.594 | 0.52 | 0.55 | 0.882 | 0.939 | 0.838 | 0.735 | 0.836 |
| HARA | 0.935 | 0.994 | 0.988 | 1.02 | 0.738 | 0.607 | 0.965 | 0.654 | 0.294 | 0.139 | 0.424 | 0.505 | 0.533 | 0.508 | 0.512 | 1.06 | 1.15 | 1.05 | 0.995 | 1.14 |
| HCC-15 | 0.791 | 0.849 | 0.897 | 0.779 | 0.534 | 0.745 | 0.737 | 0.766 | 0.581 | 0.542 | 0.537 | 0.558 | 0.633 | 0.608 | 0.575 | 0.841 | 0.866 | 0.888 | 0.803 | 0.802 |
| HCC-44 | 0.64 | 0.789 | 0.703 | 0.711 | 0.501 | 1.07 | 0.996 | 0.945 | 0.999 | 0.802 | 0.964 | 0.939 | 0.944 | 0.949 | 0.937 | 0.817 | 0.85 | 0.783 | 0.795 | 1.07 |
